Molecules are shown by their SMILES. Bounds are passed on as bounds.

Series [1] can be described thus: Polymerization of tetraethylene glycol dimethacrylate (gel formation) as a test of BP radical activity. The format is physicochemical. Conditions: agent in combination with BP, 3% w/w in tetraethylene glycol dimethacrylate, oven 90 to 100 degrees Celsius. The source says:
Methods: Polymerization of tetra ethylene glycol dimethacrylate was used as a test of BP radical activity. Solutions of BP, antibiotics, and BP and antibiotics were made at 3% w/w in tetraethylene glycol dimethacrylate. All of the antibiotics except erythromycin (ERY) were obtained from prescription pills, which were crushed in a crucible. The portion of the pills that disolved in tetraethylene glycol dimethacrylate were used in the experiment. ERY was obtained in powdered form from Benzamycin® acne treatments. Aliquots of ten drops of these solutions were placed in an eight well plastic plate. The samples were heated in an oven that maintained a temperature range between 90 to 100 degrees Celsius. After various amounts of time the samples were taken out of the oven and tested for gel formation. Polymerization of tetraethylene glycol dimethacrylate was detected visually by swirling a spatula in the solutions. Gelling constituted an indicator of BP radical activity.

In series [2] the test system is Pseudomonas aeruginosa isolates. Put plainly: Checkerboard microdilution susceptibility test (MIC alone and in combination, FICI). It counts as cell-based. As for the experimental part:
(§1) The object of this preliminary study was to discover the in vitro effect of the addition of benzoyl peroxide to terbinafine when tested against Candida albicans, Pseudomonas aeruginosa, and Staphylococcus aureus isolates, using a checkerboard microdilution method. […]
(§2) In this study, ten serial dilutions of terbinafine (starting at 32 μg/ml) and benzoyl peroxide (starting at 3%) were tested alone and in combination against ten Candida albicans isolates from the culture collection at the Center for Medical Mycology. Both susceptible and fluconazole-resistant strains were included. Two strains each of Pseudomonas aeruginosa and Staphylococcus aureus were also tested.
(§3) The individual minimum inhibitory concentrations (MICs) of terbinafine and BP against each isolate were determined according to the NCCLS M27-A2 and M07-A6 standards for yeasts and aerobic bacteria, respectively.
(§4) The effect of combining benzoyl peroxide with terbinafine was evaluated using a checkerboard assay. This test method is a modification of the microdilution antifungal susceptibility test (NCCLS M27A2) wherein two antifungal agents are combined in varying concentrations to determine whether they have a synergistic, additive, or antagonistic effect on the respective minimum inhibitory concentration (MIC) values.
(§5) Two antifungal agents were serially diluted in RPMI to produce ten concentrations of the drugs under investigation. The range was chosen to include achievable serum levels of the drugs. The two drugs were then combined into wells of a microtiter plate so that the concentration of one drug increases as that of the other decreased. Two rows consisting of serial dilutions of each individual drug were also included. Comparison of the MICs of the individual antifungal agents to the MIC of the combined agents was indicative of their relative efficacy.
(§6) [formula] The combination of two drugs was reported as synergistic (<0.5), additive (0.5<FICI <1.0), indifferent (1.0<FICI <4.0), or antagonistic (.4.0).

Series [3] has as its system Candida albicans isolates. The description is as above. The format is cell-based. Here is the method:
as §1, §2, §3, §4, §5, §6

For series [4], the system named is Staphylococcus aureus isolates. The description is as above. The format is cell-based. Here is the method:
as §1, §2, §3, §4, §5, §6

Setting [5] is: Ps. aeruginosa (n = 2), individual compound.
Where [6] appears, read: C. albicans (n = 10), individual compound.
The mark [7] stands for this setting: S. aureus (n = 2), individual compound.

As to `N[C@@H]1[C@H]2CN(c3nc4c(cc3F)c(=O)c(C(=O)O)cn4-c3ccc(F)cc3F)C[C@@H]12` [trovofloxacin], the “effect of the agent on BP radical activity (speed of polymerization of tetraethylene glycol dimethacrylate)” value in series [1] is recorded as “did not augment BP radical activity”.
As to `O=C(OOC(=O)c1ccccc1)c1ccccc1` [Benzoyl Peroxide, Benzoyl peroxide], the “number of isolates with MIC of Benzoyl Peroxide 0.09%” value in series [2] (setting [5]) worked out at 2. Also, in series [3] (setting [6]), the “number of isolates with MIC of Benzoyl Peroxide 0.38%” value stood at 6 and the “number of isolates with MIC of Benzoyl Peroxide 3.0%” value stood at 4. The “number of isolates with MIC of Benzoyl Peroxide 1.5%” value in series [4] (setting [7]) is 2.
`CC[C@H]1OC(=O)[C@H](C)[C@@H](O[C@H]2C[C@@](C)(OC)[C@@H](O)[C@H](C)O2)[C@H](C)[C@@H](O[C@@H]2O[C@H](C)C[C@H](N(C)C)[C@H]2O)[C@](C)(O)C[C@@H](C)C(=O)[C@H](C)[C@@H](O)[C@]1(C)O` [ERY, erythromycin]: the “effect of the agent on BP radical activity (speed of polymerization of tetraethylene glycol dimethacrylate)” value in series [1] is reported as “polymerize the fastest”.
In the case of `CN(C/C=C/C#CC(C)(C)C)Cc1cccc2ccccc12` [Terbinafine, terbinafine], the “number of isolates with MIC of Terbinafine >32 μg/ml” value in series [2] (setting [5]) came to 2; in series [3] (setting [6]) it was 9; in series [4] (setting [7]), 2. Besides, the minimum inhibitory concentration (MIC) (as a rule, the smallest concentration in the dilution series that meets the test's criterion for growth inhibition) is more than 32 µg/mL in series [2] (Pseudomonas aeruginosa, read-out: MIC of terbinafine alone); more than 32 µg/mL in series [3] (Candida albicans, read-out: MIC of terbinafine alone); more than 32 µg/mL in series [4] (Staphylococcus aureus, read-out: MIC of terbinafine alone). In addition, in series [3] (setting [6]), the “number of isolates with MIC of Terbinafine 8 μg/ml” value is listed as 1.

Values taken from patent US7326420B2, “Benzoyl peroxide compositions having increased potency” (priority 2001, dated 2008).
